# In patent US9549978B2, “Amino acid sequences for controlling pathogens” (CENTRO DE INGENIERIA GENETICA Y BIOTECHNOLOGIA, priority 2011, dated 2017):
# How the values were obtained:
# [1] = read-out: EC50 (LPS binding/neutralization); 0.5 EU/ml LPS, 37° C., 30 min, LAL
# Protocol: Besides the antimicrobial activity and the possibility of increase disease resistance, we studied the ability of antimicrobial peptides of the present invention to neutralize LPS, by the Limulus amebocyte lysate (LAL) test. This assay detects the presence of free LPS unneutralized. Various concentrations of peptides were incubated with 0.5 EU/ml of LPS at 37° C. for 30 min. LPS alone was used as positive control of the assay. Subsequently, were added 100 μL of the mixture to equal volume of LAL reagent. The kinetic of the turbidity was measured using the equipment Tube Reader ATi-321 (Lab Kinetics, UK).
# OVA [2] = test: Cytokine secretion by OVA-stimulated splenocytes of immunized mice, ELISA; format: in vivo, BALB/c mice
# Protocol: FIG. 8. IFN-γ secretion by spleen cells isolated from immunized animals. […] Bars represent the concentration of IFN-γ±standard deviation (n=5). Statistical analysis of the data was performed by ANOVA test and Bonferroni's multiple comparison test (*: p<0.05, ***:p<0.001).
# Animals were immunized on days 0 and 14, and blood extractions were performed on days 0, 14 and 21. The serums of animals were used for determination of specific antibody titers (total IgG, IgG1 and IgG2a). At 59 days from the beginning of the experiment was extracted the spleen from the mice to determine the cellular immune response against the antigen OVA. The spleen was extracted under aseptic conditions and the splenocytes were isolated and were seeded 2.5×10^5 cells, at a cell concentration of 2×10^6 cells/mL in 96-well round bottom plate. Cells were stimulated with Concanavalin A (5 μg/ml) or OVA (10 μg/mL) and incubated at 37° C., 5% CO2 for 4 days. Culture supernatants were collected and used for analysis of the levels of interleukin-4 and interferon-γ by ELISA.
# Aeromonas hydrophila = test: Resistance to A. hydrophila challenge in tilapia, peptides by intraperitoneal injection; format: in vivo, tilapia (O. niloticus); conditions: LD50 challenge, mortality recorded 7 days, compared to PBS group
# Protocol: We proceeded to evaluate the utility of antimicrobial peptides to enhance disease resistance in vivo. In a first test, we used 130 tilapias (O. niloticus) with a body weight of 10 g, which were randomly distributed in 13 experimental groups of ten animals per group. This assay was performed in order to determine the minimum time of treatment required to enhance the survival of fish against challenge with A. hydrophila. Each peptide was administered at a concentration of 1 μg per fish by intraperitoneal injection, for 2, 4, 8 and 15 days. An additional group was placed which PBS was administered as a control. The experimental groups were:
# After the time of peptide administration, we performed a challenge test by intraperitoneal injection of the median lethal dose (LD50) of A. hydrophila, and mortality was recorded during 7 days. We calculated the relative percent of survival (RPS) as: RPS (%)=(% mortality controls−% mortality treated)/(% mortality controls)×100
# A second test was performed to determine the optimal dose of peptide required to increase the survival of the fish following challenge with A. hydrophila. We used 130 tilapias (O. niloticus), with a body weight of about 10 g, which were randomly distributed in 13 experimental groups of 10 animals each. Each peptide was administered at a concentration of 0.5, 1, 5 and 10 μg per fish for 15 days. The experimental groups were:
# After 15 days of peptide administration, we performed a challenge test by is intraperitoneal injection of the LD50 of A. hydrophila, and mortality was recorded during 7 days. RPS was calculated as described above.
# Vibrio sp. (Gram−) = test: Microdilution antimicrobial activity (MIC/IC50); format: cell-based; conditions: for IC50: read-out: IC50 (peptide concentration that produces 50% of bacterial growth inhibition)
# Protocol: (§1) The peptides of the invention were also obtained by chemical synthesis using methods known to those skilled in this technical field. The antimicrobial activity of the peptides was determined by the microdilution method. To determine the minimum inhibitory concentration (MIC), each peptide was serially diluted 1:2. Ten microliters of each diluted peptide were incubated with 90 μL of the bacteria or yeast suspension (5×10^5 CFU (colony forming units) per mL) in Mueller Hinton broth (bacteria) or Sabouraund broth (fungi) and incubated for 18 h at 28° C. (for fish pathogens and fungi) or 37° C. (for mammalian pathogens). The MIC is defined as the lowest peptide concentration at which inhibition of bacterial growth occurs. All assays were performed in triplicate, and culture medium (without microorganism) and microorganisms to which no peptide was added were used as controls.
# E.coli (Gram−) = test: Microdilution antimicrobial activity (MIC/IC50); format: cell-based; conditions: for IC50: read-out: IC50 (peptide concentration that produces 50% of bacterial growth inhibition)
# Protocol: as §1
# [3] = system: Bacillus subtilis (Gram+); test: Microdilution antimicrobial activity (MIC/IC50); format: cell-based; conditions: for IC50: read-out: IC50 (peptide concentration that produces 50% of bacterial growth inhibition)
# Protocol: as §1
# [4] = system: Edwardsiella tarda (Gram−); test: Microdilution antimicrobial activity (MIC/IC50); format: cell-based; conditions: for IC50: read-out: IC50 (peptide concentration that produces 50% of bacterial growth inhibition)
# Protocol: as §1
# [5] = system: Candida albicans (fungus); test: Microdilution antimicrobial activity (MIC/IC50); format: cell-based; conditions: for MIC: Sabouraund broth, 28° C.; for IC50: read-out: IC50 (peptide concentration that produces 50% of bacterial growth inhibition)
# Protocol: as §1
# [6] = system: Staphylococcus aureus (Gram+); test: Microdilution antimicrobial activity (MIC/IC50); format: cell-based; conditions: for MIC: 18 h, Mueller Hinton broth; for IC50: read-out: IC50 (peptide concentration that produces 50% of bacterial growth inhibition)
# Protocol: as §1
# A. hydrophila (Gram−) = test: Microdilution antimicrobial activity (MIC/IC50); format: cell-based
# Protocol: as §1
# [7] = system: Pseudomonas aeuroginosa (Gram−); test: Microdilution antimicrobial activity (MIC/IC50); format: cell-based; conditions: for IC50: read-out: IC50 (peptide concentration that produces 50% of bacterial growth inhibition)
# Protocol: as §1
# OVA [8] = test: Co-immunization with OVA in mice, second immunization schedule, antibody titers by ELISA; format: in vivo, BALB/c mice
# Protocol: FIG. 7. Titers of total immunoglobulin G (IgG) (A), IgG1 and IgG2a (B) induced in mice by immunization with OVA co-administered with the peptides Oreochromicin I, Oreochromicin II and Oreochromicin III. Male Balb/c mice (8/group) were immunized by intraperitoneal injection on days 0 and 14 with OVA alone (5 μg/animal) or in combination with peptides at the doses of 0.238×10^20 molecules/animal (equivalent to 0.1, 0.12 and 0.14 μg/animal for Oreochromicina I, II and III, respectively) and 2.38×10^20 molecules/animal (equivalent to 1, 1.2 and 1.4 μg/animal for Oreochromicina I, II and III, respectively). The negative control group was injected with 0.1 mL of PBS. The OVA-specific humoral immune response (total IgG) was tested at 14 and 21 days after the first immunization. IgG1 and IgG2a antibody titers were analyzed at 21 days after the first immunization. The OVA-specific antibody titers were determined by ELISA. (A) Total IgG titers. Bars represent the IgG titer standard error (n=8). Statistical analysis was performed using a Kruskal-Wallis test and the Dunn multiple comparison test. Asterisks represent significant differences with the PBS group (* indicates p<0.05, ***indicates p<0.001). (B) IgG1 and IgG2a titers. Bars represent the antibody titer±standard error (n=8). Statistical analysis was performed using Mann Whitney test (*denotes p<0.05).
# 64 BALB/c male mice were selected, which were 6 weeks old, and were separated into 8 experimental groups of 8 mice each. Administration of the immunogens was is conducted by intraperitoneal injection in a volume of 0.1 mL. The antimicrobial peptides were administered in equimolar amounts (0.238×10^20 molecules and 2.38×10^20 molecules). The experimental groups were:
# Animals were immunized on days 0 and 14, and blood extractions were performed on days 0, 14 and 21. The serums of animals were used for determination of specific antibody titers (total IgG, IgG1 and IgG2a). At 59 days from the beginning of the experiment was extracted the spleen from the mice to determine the cellular immune response against the antigen OVA. […]
# MY32 = test: Co-immunization with MY32 antigen in tilapia, IgM titers by ELISA; format: in vivo, tilapia (O. niloticus); conditions: MY32 1 μg/g + peptide 10 μg/animal, adjuvanted in Montanide 888; p<0.05
# Protocol: FIG. 9. IgM titers induced by immunization of tilapia (O. niloticus) with MY32 protein co-administered with the antimicrobial peptide Oreochromicin I. Fish (10 fish/group) were immunized by intraperitoneal injection on days 0 and 14. The negative control group was injected with 0.3 mL of PBS. The humoral immune response specific for MY32 was analyzed at 14, 21 and 28 days after the first immunization. The IgM antibody titers specific for MY32 were determined by ELISA. Bars represent the IgM titer±standard error (n=10). Statistical analysis of the data was performed by ANOVA and the Newman-Keuls multiple comparison test (*indicates p<0.05).
# To assess the ability of the peptide Oreochromicin I as molecular adjuvant in tilapia was used as vaccine antigen the protein MY32, previously known (Carpio et al. (2011) Vaccine 29: 2810-2820).
# Six experimental groups were formed of 10 tilapias (O. niloticus) each with an s average weight of 45 g. The route of administration was intraperitoneal, the immunogen was applied in an injection volume of 0.3 mL. The experimental groups were:
# The animals were immunized on days 0 and 14, and blood extractions were performed on days 0, 14, 21 and 28. The serums of the animals were used for the determination of IgM specific antibody titers.
sequence,measurement,setting,value
"FIHHIIGGLFSAGKAIHRLIRRRRR [Oreochromicin II, also recombinant or chemically synthesized]",EC50,[1],1.41 µM
same,levels of secretion of IFN-γ vs OVA or PBS alone,"OVA [2]; splenocytes stimulated with OVA, peptide 1.2 μg/animal, p<0.05",significantly higher
same,"increase in survival (RPS, relative percent of survival)",Aeromonas hydrophila; 1 μg per fish i.p. for 8 days,48%
same,MIC,Vibrio sp. (Gram−),MIC = 15 μM
same,IC50,Vibrio sp. (Gram−),2.5 µM
same,MIC,E.coli (Gram−),MIC = 5 μM
same,IC50,E.coli (Gram−),2.29 µM
same,MIC,[3],MIC = 1.7 μM
same,IC50,[3],0.589 µM
same,MIC,[4],MIC = 20 μM
same,IC50,[4],2.08 µM
same,MIC,[5],MIC = 26.7 μM
same,IC50,[5],12.9 µM
same,MIC,[6],MIC = 5 μM
same,IC50,[6],2.02 µM
same,MIC,A. hydrophila (Gram−),MIC = 160 μM
same,IC50,A. hydrophila (Gram−); read-out: IC50 (peptide concentration that produces 50% of bacterial growth inhibition),30.4 µM
same,MIC,[7],MIC = 6.67 μM
same,IC50,[7],3.75 µM
"FIHHIIGGLFSVGKHIHGLIHGH [Oreochromicin I, also recombinant or chemically synthesized]",EC50,[1],1.23 µM
same,titers of specific IgG2a against OVA vs OVA alone,"OVA [8]; OVA 5 μg + peptide 1 μg/animal, 21 days after first immunization, p<0.05",significantly greater
same,specific total IgG titer to OVA vs negative control group,"OVA [8]; OVA 5 μg + peptide 1 μg/animal, p<0.001",statistically superior
same,"specific IgM titer against MY32 vs PBS, MY32 and MY32 + peptide 10 μg/fish",MY32,statistically superior
same,"increase in survival (RPS, relative percent of survival)",Aeromonas hydrophila; 1 μg per fish i.p. for 15 days,45%
same,MIC,Vibrio sp. (Gram−),MIC = 80 μM
same,IC50,Vibrio sp. (Gram−),7.45 µM
same,MIC,E.coli (Gram−),MIC = 6.7 μM
same,IC50,E.coli (Gram−),2.96 µM
same,MIC,[3],MIC = 3 μM
same,IC50,[3],1.37 µM
same,MIC,[4],MIC = 160 μM
same,IC50,[4],11.1 µM
same,MIC,[5],MIC = 20 μM
same,IC50,[5],10.3 µM
same,MIC,[6],MIC = 5 μM
same,IC50,[6],2.8 µM
same,MIC,A. hydrophila (Gram−),Did not inhibit
same,MIC,[7],MIC = 35 μM
same,IC50,[7],29.4 µM
"IWDAIFHGAKHFLHRLVNPGGKDAVKDVQQKQ [Oreochromicin III, also recombinant or chemically synthesized]",EC50,[1],2.99 µM
same,levels of IFN-γ vs OVA or PBS alone,"OVA [2]; splenocytes stimulated with OVA 10 μg/mL, dose dependent, p<0.001",significantly higher
same,total IgG titers compared to the negative control group,"OVA [8]; OVA 5 μg + peptide 1.4 μg/animal, p<0.05",statistically significant differences
same,"increase in survival (RPS, relative percent of survival)",Aeromonas hydrophila; 1 μg per fish i.p. for 15 days,45%
same,IC50,Vibrio sp. (Gram−),67.4 µM
same,MIC,E.coli (Gram−),Did not inhibit
same,MIC,[3],MIC = 106 μM
same,IC50,[3],19.2 µM
same,MIC,[4],MIC = 160 μM
same,IC50,[4],37 µM
same,MIC,[5],MIC = 40 μM
same,IC50,[5],14.1 µM
same,MIC,[6],Did not inhibit
same,MIC,A. hydrophila (Gram−),Did not inhibit
same,MIC,[7],Did not inhibit
